Measured values: PMC10671074, “Tumor Regression upon Intratumoral and Subcutaneous Dosing of the STING Agonist ALG-031048 in Mouse Efficacy Models” (International Journal of Molecular Sciences, 2023)
pEC50: −log10 of the molar value.

Columns and labels:
[1] = biological target: T1, ENPP1 (Homo sapiens, UniProt P22413); assay: ENPP1 stability assay; type: in vitro ADME; conditions: pH 9.5; 100 μM STING agonist, 26.5 nM recombinant human ENPP1, 37 °C, up to 2 h; read-out: ENPP1 t½
T1 construct: purchased R&D Systems
T1 sequence (P22413 1-925): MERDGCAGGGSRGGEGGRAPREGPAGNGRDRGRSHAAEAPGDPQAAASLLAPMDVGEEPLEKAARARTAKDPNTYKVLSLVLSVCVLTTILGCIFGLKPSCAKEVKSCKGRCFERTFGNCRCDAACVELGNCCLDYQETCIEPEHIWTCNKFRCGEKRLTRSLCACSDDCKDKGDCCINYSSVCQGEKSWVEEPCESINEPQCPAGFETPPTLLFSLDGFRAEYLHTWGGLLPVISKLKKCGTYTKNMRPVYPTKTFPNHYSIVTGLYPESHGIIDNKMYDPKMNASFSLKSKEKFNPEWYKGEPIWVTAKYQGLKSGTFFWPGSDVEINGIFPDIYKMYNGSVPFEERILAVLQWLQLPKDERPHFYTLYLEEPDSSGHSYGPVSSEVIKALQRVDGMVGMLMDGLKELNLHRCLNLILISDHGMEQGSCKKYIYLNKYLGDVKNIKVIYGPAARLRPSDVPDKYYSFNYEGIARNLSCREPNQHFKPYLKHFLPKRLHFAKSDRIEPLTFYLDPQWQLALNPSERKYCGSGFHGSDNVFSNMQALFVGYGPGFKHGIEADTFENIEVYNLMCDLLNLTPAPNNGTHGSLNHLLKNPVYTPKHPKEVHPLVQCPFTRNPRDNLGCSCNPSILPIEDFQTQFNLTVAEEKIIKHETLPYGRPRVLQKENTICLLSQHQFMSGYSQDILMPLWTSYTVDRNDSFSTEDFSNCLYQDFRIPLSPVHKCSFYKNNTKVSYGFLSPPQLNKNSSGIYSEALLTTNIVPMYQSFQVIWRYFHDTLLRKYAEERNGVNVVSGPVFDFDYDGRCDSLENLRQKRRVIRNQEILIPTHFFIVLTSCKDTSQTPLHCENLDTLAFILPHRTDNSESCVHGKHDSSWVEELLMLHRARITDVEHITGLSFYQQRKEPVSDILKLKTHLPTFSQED

[2] = Plasma stability, mouse; type: in vitro ADME; conditions: 37 °C, read-out: Plasma t½, Mouse
Procedure: The plasma stability assay was carried out on 96-well microtiter plates. The test compounds at 5 µM and the reference compound (propantheline) at 1 µM final concentration were incubated separately at 37 °C with mouse or human plasma for 0, 30, 60, and 240 min. At the end of each incubation time point, 300 μL of the quenching solution (50% acetonitrile, 50% methanol, and 0.05% formic acid) containing the internal standard was added to each well. The incubation plates were sealed, vortexed, and centrifuged at 4 °C for 15 min at 4000 rpm. The supernatant was transferred to fresh plates for LC/MS/MS analysis of the test compounds. The peak area ratios of each test compound over the internal standard were plotted against incubation time, and the t½ was calculated from the curve assuming first-order kinetics.

[3] = system: THP-1 cells (STING isoform HAQ); assay: THP-1 cytokine (IP-10) release assay; type: cell-based, human; conditions: overnight incubation, THP-1 (STING HAQ)
Procedure: THP-1 cells (American Type Culture Collection, Manassas, VA, USA) were maintained in maintenance media consisting of RPMI-1640, 1% Pen-Strep, 1% NEAA, 1% Glutagro™, 1% HEPES (all Corning), and 10% FBS (Sigma-Aldrich). On the day of dosing, cells were pelleted and resuspended in fresh media to a density of 1.6 × 10^6 cells/mL. An aliquot of […] was added to each well of a 96-well U-bottom plate for a total of 1.0 × 10^5 cells per well, and the final volume was adjusted to 150 µL using fresh media. Compound dilutions were prepared in maintenance media, and 50 µL of diluted compound were added to wells in duplicate. Cells were incubated with the compound overnight at 37 °C. The next day, plates were centrifuged, and the supernatant was collected in a 96-well flat-bottom plate. Human IP-10 was detected using the ProQuantum Immunoassay kit (Thermo Fisher Scientific, Waltham, MA, USA). Data were analyzed using a standard curve and reported as fold-increase over background. Graphs were generated using GraphPad™ Prism version 8.0.

[4] = system: EMT-6 murine mammary carcinoma; assay: Re-challenge with EMT-6 of mice with complete CT26 tumor regression; type: in vivo, mouse; conditions: Figure 5D; previously 100 μg IT × 3; EMT-6 right flank
Procedure: Ten naïve, age-matched female BALB/c mice were used as controls. […] Tumor growth was measured as described above.

[5] = system: phosphodiesterase I from Crotalus adamanteus venom (SVPD)
[6] = biological target: STING R232 (Homo sapiens, UniProt Q86WV6, H232R); assay: HEK 293 STING R232 IFN-β reporter assay; type: cell-based; set-up: host or cells: 293T-Dual hSTING-R232 (HEK 293T derived); conditions: HEK 293 STING R232 cells, digitonin dosing buffer 30 min, 20 h; mean±standard deviation; read-out: Reporter Cell Assay EC50, STING R232 IFN-β
Sequence of STING R232 (Q86WV6 whole entry H232R): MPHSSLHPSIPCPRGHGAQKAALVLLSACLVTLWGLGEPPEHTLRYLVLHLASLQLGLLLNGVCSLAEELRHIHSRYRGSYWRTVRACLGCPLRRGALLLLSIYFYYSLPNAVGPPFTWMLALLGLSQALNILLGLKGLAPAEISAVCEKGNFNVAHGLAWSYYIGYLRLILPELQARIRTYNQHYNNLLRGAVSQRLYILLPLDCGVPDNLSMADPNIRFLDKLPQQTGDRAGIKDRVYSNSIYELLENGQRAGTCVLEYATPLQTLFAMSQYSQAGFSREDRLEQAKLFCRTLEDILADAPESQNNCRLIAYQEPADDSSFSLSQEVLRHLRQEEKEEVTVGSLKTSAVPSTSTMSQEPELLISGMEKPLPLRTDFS
Procedure: Assays were set up after allowing cells to adhere for 48 h. Compounds dissolved in water were serially diluted in dosing buffer containing 10 µg/mL of digitonin (MP Biomedicals, Solon, OH, USA). Media were aspirated from the cells, and 50 µL of buffer with compound was added in triplicate. […] An aliquot of 100 µL of CellTiter-Glo® (Promega, Madison, WI, USA) was added to the original plate still containing the cells, and luminescence was determined to measure viability. All readouts were measured on an Envision plate reader from Perkin Elmer. Data were analyzed using GraphPad™ Prism’s version 8.0 [Agonist] vs. response—variable slope (four parameters) model.

[7] = system: HEK 293 reporter cells; assay: Cell viability of HEK 293 reporter cells (CellTiter-Glo); conditions: concentrations up to 1000 nM
Procedure: Assays were set up after allowing cells to adhere for 48 h. Compounds dissolved in water were serially diluted in dosing buffer containing 10 µg/mL of digitonin (MP Biomedicals, Solon, OH, USA). Media were aspirated from the cells, and 50 µL of buffer with compound was added in triplicate. […] The next day, 20 µL of media was transferred to two new plates, and either 50 µL of QuantiLuc™ (Invivogen) to measure IFN-β expression or 80 µL of QuantiBlue™ (Invivogen) to measure IRF activity were added. […] An aliquot of 100 µL of CellTiter-Glo® (Promega, Madison, WI, USA) was added to the original plate still containing the cells, and luminescence was determined to measure viability. All readouts were measured on an Envision plate reader from Perkin Elmer. Data were analyzed using GraphPad™ Prism’s version 8.0 [Agonist] vs. response—variable slope (four parameters) model.
with increasing concentrations of the STING agonists or IFN‐β. After 24 hours, IRF reporter activity

## CO[C@H]1[C@H]2OP(=O)(O)OC[C@@]34C[C@@H]3[C@@H](n3cnc5c(N)ncnc53)[C@H](O)[C@@H]4O[P@](=O)(S)OC[C@H]1O[C@H]2n1cnc2c(=O)[nH]c(N)nc21 [ALG-031048]
[1]
  half-life at 100 μM: > 120 min
[2]
  half-life at 5 µM: > 60 min
[3]
  Release of IP-10 in THP-1 cells: dose-dependent release of IP-10
[4]
  EMT-6 tumor growth after re-challenge: formed in these animals with kinetics comparable to those of naïve animals
[5]
  Stability after incubation with SVPD (in words): stable
[6]
  pEC50: 6.88
[7]
  Cell viability of HEK 293 reporter cells: did not cause any loss of cell viability
